Experimental data reported in PubChem BioAssay (NCI).
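96-well plates; 48 h exposure; 5 concentrations. Endpoints by linear interpolation between flanking doses. Not reached: highest tested concentration assigned. The concentration for 50% growth inhibition is given as GI50. TGI: total growth inhibition.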

Key:
Assay in all cases: inhibition of tumour cell growth, NCI panel, 48 h
[1] = tested on: A498 renal
[2] = tested on: ACHN renal
[3] = tested on: CAKI-1 renal
[4] = tested on: DU-145 prostate
[5] = tested on: HS 578T breast
[6] = tested on: NCI-H522 lung
[7] = tested on: RXF 393 renal
[8] = tested on: SF-268 CNS
[9] = tested on: SF-539 CNS
[10] = tested on: SK-MEL-2 melanoma
[11] = tested on: SK-OV-3 ovarian
[12] = tested on: SNB-75 CNS
[13] = tested on: TK-10 renal
[14] = tested on: UO-31 renal
[15] = tested on: 786-0 renal
[16] = tested on: A549 NSCLC
[17] = tested on: BT-549 breast
[18] = tested on: CCRF-CEM leukemia
[19] = tested on: COLO 205 colon
[20] = tested on: EKVX NSCLC
[21] = tested on: HCC-2998 colon
[22] = tested on: HCT-116 colon
[23] = tested on: HCT-15 colon
[24] = tested on: HL-60(TB) leukemia
[25] = tested on: HOP-62 NSCLC
[26] = tested on: HOP-92 NSCLC
[27] = tested on: HT29 colon
[28] = tested on: IGROV1 ovarian
[29] = tested on: K-562 leukemia
[30] = tested on: KM12 colon
[31] = tested on: LOX IMVI melanoma
[32] = tested on: M14 melanoma
[33] = tested on: MALME-3M melanoma
[34] = tested on: MCF7 breast
[35] = tested on: MDA-MB-231 breast
[36] = tested on: MDA-MB-435
[37] = tested on: MOLT-4 leukemia
[38] = tested on: NCI-H226 lung
[39] = tested on: NCI-H23 lung
[40] = tested on: NCI-H460 lung
[41] = tested on: NCI/ADR-RES ovarian
[42] = tested on: OVCAR-4 ovarian
[43] = tested on: OVCAR-5 ovarian
[44] = tested on: OVCAR-8 ovarian
[45] = tested on: PC-3 prostate
[46] = tested on: RPMI-8226 leukemia
[47] = tested on: SF-295 CNS
[48] = tested on: SK-MEL-28 melanoma
[49] = tested on: SK-MEL-5 melanoma
[50] = tested on: SN12C renal
[51] = tested on: SNB-19 CNS
[52] = tested on: SR leukemia
[53] = tested on: SW-620 colon
[54] = tested on: U251 CNS
[55] = tested on: UACC-257 melanoma
[56] = tested on: UACC-62 melanoma
[57] = tested on: OVCAR-3 ovarian

Cc1ccc(S(=O)(=O)OC[C@]23CCC(C)(C)C[C@H]2C2=CC[C@@H]4[C@@]5(C)CCCNC(C)(C)[C@@H]5CC[C@@]4(C)[C@]2(C)CC3)cc1
GI50 [1]: 5.99 µM
TGI [1]: 21.4 µM
GI50 [2]: 1.69 µM
TGI [2]: 3.07 µM
GI50 [3]: 1.45 µM
TGI [3]: 2.82 µM
GI50 [4]: 1.79 µM
TGI [4]: 3.37 µM
GI50 [5]: 1.82 µM
TGI [5]: 4.08 µM
GI50 [6]: 1.69 µM
TGI [6]: 3.38 µM
GI50 [7]: 1.38 µM
TGI [7]: 2.78 µM
GI50 [8]: 2.32 µM
TGI [8]: 8.44 µM
GI50 [9]: 1.71 µM
TGI [9]: 3.15 µM
GI50 [10]: 2.19 µM
TGI [10]: 4.83 µM
GI50 [11]: 1.76 µM
TGI [11]: 3.26 µM
GI50 [12]: 1.48 µM
TGI [12]: 2.94 µM
GI50 [13]: 1.77 µM
TGI [13]: 3.33 µM
GI50 [14]: 1.29 µM
TGI [14]: 2.68 µM

Cc1ccc(N/C(Sc2ccccc2)=C(/C(Cl)=C(Cl)Cl)[N+](=O)[O-])c(C)c1
TGI [15]: 39.1 µM
TGI [1]: 53.4 µM
TGI [16]: > 81.5 µM
TGI [2]: > 100 µM
TGI [17]: 29.1 µM
TGI [3]: 30.7 µM
TGI [18]: 76.1 µM
TGI [19]: 35.3 µM
TGI [4]: > 87.1 µM
TGI [20]: 65.1 µM
TGI [21]: 36 µM
TGI [22]: 30.8 µM
TGI [23]: 32.3 µM
TGI [24]: 56.2 µM
TGI [25]: 59.7 µM
TGI [26]: 45.8 µM
TGI [5]: > 100 µM
TGI [27]: 35.6 µM
TGI [28]: 40.2 µM
TGI [29]: 45.8 µM
TGI [30]: 32.2 µM
TGI [31]: 28.2 µM
TGI [32]: 59.7 µM
TGI [33]: 34 µM
TGI [34]: 28 µM
TGI [35]: 33.2 µM
TGI [36]: 27.7 µM
TGI [37]: > 100 µM
TGI [38]: 55.4 µM
TGI [39]: 68.7 µM
TGI [40]: 32.7 µM
TGI [6]: 42.9 µM
TGI [41]: 70.4 µM
TGI [42]: > 100 µM
TGI [43]: 23 µM
TGI [44]: > 100 µM
TGI [45]: 36.1 µM
TGI [46]: 64.8 µM
TGI [8]: 29.5 µM
TGI [47]: 47 µM
TGI [9]: 45.4 µM
TGI [10]: 36.9 µM
TGI [48]: 41.2 µM
TGI [49]: 81.7 µM
TGI [11]: 99.2 µM
TGI [50]: 43.1 µM
TGI [51]: 54 µM
TGI [52]: > 100 µM
TGI [53]: 36.7 µM
TGI [13]: > 100 µM
TGI [54]: 26.7 µM
TGI [55]: 38.2 µM
TGI [56]: 62.2 µM

CN(C)c1ccc(-c2ccc(-c3ccc(C(=N)N)c(F)c3)s2)cc1
GI50 [15]: 1.87 µM
TGI [15]: 3.49 µM
GI50 [1]: 0.0149 µM
TGI [1]: 1.15 µM
GI50 [3]: 1.59 µM
TGI [3]: 3.11 µM
GI50 [18]: 0.329 µM
TGI [18]: 1.26 µM
GI50 [4]: 1.65 µM
TGI [4]: 3.18 µM
GI50 [22]: 1.17 µM
TGI [22]: 2.6 µM
GI50 [26]: 1.4 µM
TGI [26]: 3.03 µM
GI50 [29]: 0.258 µM
TGI [29]: 0.699 µM
GI50 [32]: 1.74 µM
TGI [32]: 3.39 µM
GI50 [36]: 1.65 µM
TGI [36]: 3.17 µM
GI50 [40]: 1.77 µM
TGI [40]: 3.37 µM
GI50 [57]: 1.94 µM
TGI [57]: 3.59 µM
GI50 [42]: 1.87 µM
TGI [42]: 3.5 µM
GI50 [44]: 2.23 µM
TGI [44]: 5.38 µM
GI50 [46]: 1.91 µM
TGI [46]: 4.48 µM
GI50 [52]: 0.244 µM
TGI [52]: 0.692 µM
GI50 [53]: 1.48 µM
TGI [53]: 3.07 µM
GI50 [56]: 1.83 µM
TGI [56]: 3.66 µM
GI50 [14]: 1.54 µM
TGI [14]: 3.05 µM

NC(=O)c1ncn(CC2(CO)CCC2)c1N
GI50 [12]: 10.8 µM
